From US10213429B2, “Imidazo-pyrazinyl derivatives useful as soluble guanylate cyclase activators” (Merck Sharp & Dohme Corp., priority 2015, dated 2019)

Experiments:
[1] = tested on: Spontaneously hypertensive rats (SHR); experiment: Acute Efficacy in Spontaneously Hypertensive Rats (SHR), telemetry blood pressure; assay type: in vivo, rat; conditions: SHR male
Excerpt: Acute Efficacy in Spontaneously Hypertensive Rats (SHR)
Spontaneously hypertensive rats (SHR, male, Charles River) were implanted with DSI TA11PA-C40 telemetry device (Data Sciences, Inc., St. Paul, Minn.) under isoflurane or ketamine/metomidine anesthesia. The telemetry unit catheter was inserted into the descending aorta via the femoral artery and the telemetry device was implanted subcutaneously in the left flank area. Animals were allowed to recover from surgery for 14 days before the start of any studies. Blood pressure, heart rate, and activity signals from conscious, freely moving rats were recorded continuously for 30 seconds every 10 minutes. On the day prior to administration of compound, a single oral dose of vehicle (10% transcutol/20% Cremophor/70% water) was administered to all animals to establish baseline control data. The blood pressure lowering efficacy of compound (PO) or vehicle was evaluated following a single oral gavage. Data were collected as hourly averages, and changes in blood pressure were calculated by subtracting control baseline data on an hourly basis. Animals were maintained on normal diet with a 12 hour light-dark cycle.
Maximum peak decreases of systolic blood pressure (SBP) in SHR at a particular P.O. dose (mpk milligrams per kilogram) for the following representative compounds are provided. • Category A=SBP in SHRs<20 mmHg; Category B=SBP in SHRs 20-40 mmHg; • Category C=SBP in SHRs>40 mmHg

[2] = target: T1, sGC α1/β1 heterodimer (Homo sapiens, UniProt Q02108+Q02153); experiment: Cell-Based sGC Functional Assay (CASA Assay), cGMP by HTRF in CHO-K1/sGC cells; conditions: for Emax: CHO-K1, percent activation relative to maximum cGMP production of Compound A (= 100%), read-out: % Act.; for EC50: cGMP production, 1 hr at 37° C., 4P fit, presence or absence of 1 μM DETA-NO not given, read-out: IP (nM) (inflection point)
T1 construct: expressed in transfected cells; host or cells: CHO-K1 (clone #7, CHO-K1/sGC)
T1 sequence (Q02108 1-690): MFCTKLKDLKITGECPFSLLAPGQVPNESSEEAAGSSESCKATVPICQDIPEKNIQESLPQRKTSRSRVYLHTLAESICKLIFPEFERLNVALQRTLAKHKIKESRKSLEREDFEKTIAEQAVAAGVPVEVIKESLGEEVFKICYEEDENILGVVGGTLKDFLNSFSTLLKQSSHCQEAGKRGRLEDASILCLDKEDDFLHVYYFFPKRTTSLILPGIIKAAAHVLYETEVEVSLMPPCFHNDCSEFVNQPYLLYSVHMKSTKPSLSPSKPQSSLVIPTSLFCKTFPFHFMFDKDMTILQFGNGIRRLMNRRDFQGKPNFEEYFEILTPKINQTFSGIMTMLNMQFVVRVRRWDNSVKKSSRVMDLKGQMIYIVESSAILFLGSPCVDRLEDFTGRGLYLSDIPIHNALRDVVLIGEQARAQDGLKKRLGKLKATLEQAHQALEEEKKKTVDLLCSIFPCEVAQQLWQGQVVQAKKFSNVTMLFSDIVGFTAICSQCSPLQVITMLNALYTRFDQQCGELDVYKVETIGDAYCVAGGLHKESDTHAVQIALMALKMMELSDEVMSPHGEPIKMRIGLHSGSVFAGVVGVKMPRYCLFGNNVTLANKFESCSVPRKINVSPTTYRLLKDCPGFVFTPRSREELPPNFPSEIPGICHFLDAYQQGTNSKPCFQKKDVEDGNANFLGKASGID
T1 sequence (Q02153 1-619): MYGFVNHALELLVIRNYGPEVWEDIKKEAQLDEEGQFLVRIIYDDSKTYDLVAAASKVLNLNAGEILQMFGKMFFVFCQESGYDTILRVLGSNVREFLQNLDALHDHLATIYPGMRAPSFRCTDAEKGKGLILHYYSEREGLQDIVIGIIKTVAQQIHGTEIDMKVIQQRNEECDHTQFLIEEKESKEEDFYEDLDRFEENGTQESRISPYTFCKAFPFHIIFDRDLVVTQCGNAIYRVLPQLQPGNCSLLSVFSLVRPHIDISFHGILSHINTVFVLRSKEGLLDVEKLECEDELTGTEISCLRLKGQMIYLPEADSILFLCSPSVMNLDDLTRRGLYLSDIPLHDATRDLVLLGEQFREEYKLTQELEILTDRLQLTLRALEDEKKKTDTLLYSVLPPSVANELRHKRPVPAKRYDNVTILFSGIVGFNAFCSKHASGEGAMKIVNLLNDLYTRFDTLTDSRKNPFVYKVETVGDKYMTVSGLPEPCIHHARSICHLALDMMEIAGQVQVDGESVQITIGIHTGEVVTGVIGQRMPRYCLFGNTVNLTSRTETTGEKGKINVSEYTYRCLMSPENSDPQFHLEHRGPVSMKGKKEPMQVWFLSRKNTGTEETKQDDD
Procedure, shortened: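 CHO-K1 cells stably expressing human sGC α1/β1, in EBSS buffer with 5 mM MgCl2, 10 mM HEPES, 0.05% BSA and 0.5 mM IBMX, incubated with compound (2.5% DMSO) ± 1 μM DETA-NO, 1 h, 37 °C. Intracellular cGMP read by HTRF; activity as % of reference activator maximum, IP from 4-parameter fit.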

Compound	Emax [2] [%]	EC50 [2] [nM]	Cat. (maximum peak decrease of systolic blood pressure (SBP) in SHR) ([1]; single oral dose 1.0 mpk P.O.)	Cat. (maximum peak decrease of systolic blood pressure (SBP) in SHR) ([1]; single oral dose 3.0 mpk P.O.)	Cat. (maximum peak decrease of systolic blood pressure (SBP) in SHR) ([1]; single oral dose 0.3 mpk P.O.)
CC1(c2ccc(F)cn2)C(=O)Nc2nc(-c3cn4ccnc4c(CCC(F)(F)C(F)(F)F)n3)ncc21 (stereo not drawn) [Example 62B, 5-(5-fluoropyridin-2-yl)-5-methyl-2-(8-(3,3,4,4,4-pentafluorobutyl)imidazo[1,2-a]pyrazin-6-yl)-5H-pyrrolo[2,3-d]pyrimidin-6(7H)-one]	98	104	B (Category B=SBP in SHRs 20-40 mmHg)	–	–
O=C1Nc2nc(-c3cn4ccnc4c(CCCC(F)(F)F)n3)ncc2C1(c1ccc(OC(F)(F)F)cc1)C1CC1 (stereo not drawn) [Example 52A, 5-cyclopropyl-2-(8-(4,4,4-trifluorobutyl)imidazo[1,2-a]pyrazin-6-yl)-5-(4-(trifluoromethoxy)phenyl)-5H-pyrrolo[2,3-d]pyrimidin-6(7H)-one]	155	791	–	A (Category A=SBP in SHRs<20 mmHg)	–
CCCCc1nc(-c2ncc3c(n2)NC(=O)C3(C)c2ccc(F)cc2)cn2ccnc12 (stereo not drawn) [Example 78A, 2-(8-Butylimidazo[1,2-a]pyrazin-6-yl)-5-(4-fluorophenyl)-5-methyl-5H-pyrrolo[2,3-d]pyrimidin-6(7H)-one]	121	50	C (Category C=SBP in SHRs>40 mmHg)	–	–
CC1(c2ccc(Cl)cn2)C(=O)Nc2nc(-c3cn4ccnc4c(CC4CCC4)n3)nc(O)c21 (stereo not drawn) [Example 27A, 5-(5-chloropyridin-2-yl)-2-(8-(cyclobutylmethyl)imidazo [1,2-a]pyrazin-6-yl)-4-hydroxy-5-methyl-5H-pyrrolo[2,3-d]pyrimidin-6(7H)-one]	95	645	–	B (Category B=SBP in SHRs 20-40 mmHg)	–
CC1(c2ccc(F)cc2)C(=O)Nc2nc(-c3cn4ccnc4c(CCC(F)(F)C(F)(F)F)n3)ncc21 (stereo not drawn) [Example 1A, 5-(4-Fluorophenyl)-5-methyl-2-(8-(3,3,4,4,4-pentafluorobutyl)imidazo[1,2-a]pyrazin-6-yl)-5H-pyrrolo[2,3-d]pyrimidin-6(7H)-one]	121	228	B (Category B=SBP in SHRs 20-40 mmHg)	–	–
CC1(c2ccc(F)cn2)C(=O)Nc2nc(-c3cn4ccnc4c(CC4CCC4)n3)ncc21 (stereo not drawn) [Example 65B, 2-(8-(cyclobutylmethyl)imidazo[1,2-a]pyrazin-6-yl)-5-(5-fluoropyridin-2-yl)-5-methyl-5H-pyrrolo[2,3-d]pyrimidin-6(7H)-one]	102	71	–	–	B (Category B=SBP in SHRs 20-40 mmHg)
CC1(c2ccc(F)cc2)C(=O)Nc2nc(-c3cn4ccnc4c(OCCC4CC4)n3)nc(O)c21 (stereo not drawn) [Example 93A, 2-(8-(2-Cyclopropylethoxy)imidazo[1,2-a]pyrazin-6-yl)-5-(4-fluorophenyl)-4-hydroxy-5-methyl-5H-pyrrolo[2,3-d]pyrimidin-6(7H)-one]	86	163	A (Category A=SBP in SHRs<20 mmHg)	–	–
Cc1cn2cc(-c3ncc4c(n3)NC(=O)C4(C)c3ccc(F)cn3)nc(CCCC(F)(F)F)c2n1 (stereo not drawn) [Example 90B, 5-(5-Fluoropyridin-2-yl)-5-methyl-2-(2-methyl-8-(4,4,4-trifluorobutyl)imidazo[1,2-a]pyrazin-6-yl)-5H-pyrrolo[2,3-d]pyrimidin-6(7H)-one]	191	589	–	–	B (Category B=SBP in SHRs 20-40 mmHg)

Continued by falling EC50 [2], values first:

Emax [2] [%]	EC50 [2] [nM]	Compound	Cat. (maximum peak decrease of systolic blood pressure (SBP) in SHR) ([1]; single oral dose 1.0 mpk P.O.)	Cat. (maximum peak decrease of systolic blood pressure (SBP) in SHR) ([1]; single oral dose 3.0 mpk P.O.)	Cat. (maximum peak decrease of systolic blood pressure (SBP) in SHR) ([1]; single oral dose 0.3 mpk P.O.)
125	800	CC1(c2ccc(F)c(F)c2)C(=O)Nc2nc(-c3cn4ccnc4c(CCC(F)(F)F)n3)ncc21 (stereo not drawn) [Example 37B, 5-(3,4-difluorophenyl)-5-methyl-2-(8-(3,3,3-trifluoropropyl)imidazo[1,2-a]pyrazin-6-yl)-5H-pyrrolo[2,3-d]pyrimidin-6(7H)-one]	–	B (Category B=SBP in SHRs 20-40 mmHg)	–
89	436	CC1(c2ccc(F)cc2)C(=O)Nc2nc(-c3cn4ccnc4c(CCCC(F)(F)F)n3)nc(O)c21 (stereo not drawn) [Example 30A, 5-(4-fluorophenyl)-4-hydroxy-5-methyl-2-(8-(4,4,4-trifluorobutyl)imidazo[1,2-a]pyrazin-6-yl)-5H-pyrrolo[2,3-d]pyrimidin-6(7H)-one]	B (Category B=SBP in SHRs 20-40 mmHg)	–	–
135	173	CCCc1nc(-c2ncc3c(n2)NC(=O)C3(C)c2ccc(Cl)c(F)c2)cn2ccnc12 (stereo not drawn) [Example 38B, 5-(4-chloro-3-fluorophenyl)-5-methyl-2-(8-propylimidazo[1,2-a]pyrazin-6-yl)-5H-pyrrolo[2,3-d]pyrimidin-6(7H)-one]	A (Category A=SBP in SHRs<20 mmHg)	–	–
124	102	O=C1Nc2nc(-c3cn4ccnc4c(CCCC(F)(F)F)n3)nc(O)c2C1(c1ccc(Cl)cc1F)C1CC1 (stereo not drawn) [Example 34A, 5-(4-chloro-2-fluorophenyl)-5-cyclopropyl-4-hydroxy-2-(8-(4,4,4-trifluorobutyl)imidazo[1,2-a]pyrazin-6-yl)-5H-pyrrolo[2,3-d]pyrimidin-6(7H)-one]	–	B (Category B=SBP in SHRs 20-40 mmHg)	–
141	35	CC1(c2ccc(F)cc2)C(=O)Nc2nc(-c3cn4ccnc4c(CCCC(F)(F)F)n3)ncc21 (stereo not drawn) [Example 64A, 5-(4-fluorophenyl)-5-methyl-2-(8-(4,4,4-trifluorobutyl)imidazo[1,2-a]pyrazin-6-yl)-5H-pyrrolo[2,3-d]pyrimidin-6(7H)-one]	–	–	B (Category B=SBP in SHRs 20-40 mmHg)
118	34	CC1(c2ccc(Cl)cc2)C(=O)Nc2nc(-c3cn4ccnc4c(CCC(F)(F)C(F)(F)F)n3)ncc21 (stereo not drawn) [Example 3A, 5-(4-chlorophenyl)-5-methyl-2-(8-(3,3,4,4,4-pentafluorobutyl)imidazo[1,2-a]pyrazin-6-yl)-5H-pyrrolo[2,3-d]pyrimidin-6(7H)-one]	B (Category B=SBP in SHRs 20-40 mmHg)	–	–
117	30	CC1(c2ccc(F)cn2)C(=O)Nc2nc(-c3cn4ccnc4c(Cc4ccc(F)cc4)n3)ncc21 (stereo not drawn) [Example 5B, 2-(8-(4-fluorobenzyl)imidazo[1,2-a]pyrazin-6-yl)-5-(5-fluoropyridin-2-yl)-5-methyl-5H-pyrrolo[2,3-d]pyrimidin-6(7H)-one]	–	–	B (Category B=SBP in SHRs 20-40 mmHg)
